Measurements as given in ChEMBL document CHEMBL6114980, “Single or double lipid-modified ultra-short antimicrobial peptides for treating infections caused by resistant bacteria” (Eur J Med Chem, 2025).
≈ marks a conversion by molar mass, not a printed value. Calls of active or inactive are those of the source. The rule behind the calls is not given here. Peptide text beside a SMILES is read from it. * marks the point of attachment. Lauroyl = CCCCCCCCCCCC(=O)*; Octanoyl = CCCCCCCC(=O)*

Tests used:
Klebsiella pneumoniae [1] = assay: Induction of morphological changes in Klebsiella pneumoniae assessed as cell contraction at 2 times MIC measured after 120 mins by SEM analysis; format: functional, organism-based
Klebsiella pneumoniae [2] = assay: Induction of morphological changes in Klebsiella pneumoniae assessed as cell aggregation at 2 times MIC measured after 120 mins by SEM analysis; format: functional, organism-based
Staphylococcus aureus [3] = assay: Bactericidal activity against Staphylococcus aureus 25923 assessed as eradication of bacteria at 2 times MIC measured within 1 hr by time-kill assay; format: functional, organism-based
Escherichia coli [4] = assay: Antibacterial activity against Escherichia coli assessed as reduction in survival bacterial growth in presence of ZnCl2 measured after 18 to 24 hrs (reference value: 8 microM); format: functional; details: time 18-24 hrs
Cell membrane [5] = assay: Induction of inner membrane permeabilization in Escherichia coli at 4 times MIC measured for 135 mins by absorbance based analysis
Klebsiella pneumoniae [6] = assay: Antibacterial activity against Klebsiella pneumoniae ATCC 700603 infected in male BALB/c mouse lung infection model assessed as reduction in bacterial load at 5 mg/kg, ip measured after 6 to 36 hrs (reference value: 1.77 10^6CFU/mg); format: functional; details: time 6-36 hrs
Klebsiella pneumoniae [7] = assay: Induction of morphological changes in Klebsiella pneumoniae assessed as cell adhesion at 2 times MIC measured after 120 mins by SEM analysis; format: functional, organism-based
Escherichia coli [8] = assay: Antibacterial activity against Escherichia coli 850 assessed as reduction in bacterial growth incubated for 18 to 24 hrs by broth microdilution method; format: functional; details: time 18-24 hrs
Staphylococcus aureus [9] = assay: Antibacterial activity against Staphylococcus aureus assessed as reduction in survival bacterial growth by measuring fold change in presence of FeCl3 measured after 18 to 24 hrs; format: functional; details: time 18-24 hrs
Acinetobacter baumannii [10] = assay: Antibacterial activity against Acinetobacter baumannii ATCC 19606 assessed as reduction in bacterial growth incubated for 18 to 24 hrs by broth microdilution method; format: functional; details: time 18-24 hrs
Escherichia coli [11] = assay: Bactericidal activity against Escherichia coli 25922 assessed as eradication of bacteria at 2 times MIC measured within 1 hr by time-kill assay; format: functional, organism-based
Cell membrane [12] = assay: Induction of outer membrane permeabilization in Escherichia coli assessed as increase in fluorescence intensity measured for 10 mins by fluorescence based NPN uptake assay
Staphylococcus aureus [13] = assay: Synergistic antibacterial activity against methicillin-resistant Staphylococcus aureus measured after 18 hrs in presence of polymyxin B by absorbance based analysis; format: functional, organism-based
Staphylococcus aureus [14] = assay: Antibacterial activity against methicillin resistant Staphylococcus aureus infected in male BALB/c mouse model of skin wound infection assessed as healthy development of hair follicles at 2 mg/kg, ip measured after 10 days post infection; format: functional, organism-based; details: time 10.0 day
Staphylococcus aureus [15] = assay: Induction of morphological changes in Staphylococcus aureus assessed as cell foaming at 2 times MIC measured after 30 mins by SEM analysis; format: functional, organism-based
Staphylococcus aureus [16] = assay: Synergistic antibacterial activity against Staphylococcus aureus 113 measured after 18 hrs in presence of polymyxin B by absorbance based analysis; format: functional, organism-based
[17] = Potency index, ratio of polymyxin B to test compound for acute toxicity in BALB/c mouse assessed lethal dose administered as ip dose measured for 7 days; format: organism-based; details: in vivo, 168 h, time 7 day
Staphylococcus aureus [18] = assay: Antibacterial activity against Staphylococcus aureus ATCC 25923 assessed as reduction in bacterial growth incubated for 18 to 24 hrs by broth microdilution method; format: functional; details: time 18-24 hrs
[19] = Acute toxicity in male BALB/c mouse assessed mouse survival at 100 to 130 mg/kg, ip measured within 3 hrs; format: organism-based; details: in vivo, dose 100-130 mg/kg
Pseudomonas aeruginosa = assay: Antibacterial activity against Pseudomonas aeruginosa ATCC 27853 assessed as reduction in bacterial growth incubated for 18 to 24 hrs by broth microdilution method; format: functional; details: time 18-24 hrs
Lipopolysaccharide (LPS) = assay: Binding affinity to LPS (unknown origin) assessed as reduction in bacterial mortality at 2 times MIC preincubated with LPS for 1 hr followed by bacteria addition for 24 hrs by spectrophotometric analysis
Escherichia coli [20] = assay: Antibacterial activity against Escherichia coli ATCC 25922 assessed as reduction in bacterial growth incubated for 18 to 24 hrs by broth microdilution method; format: functional; details: time 18-24 hrs
Staphylococcus aureus [21] = assay: Additive antibacterial activity against Staphylococcus aureus 113 assessed as fractional inhibitory in presence of cephalothin by checker board assay; format: functional
Staphylococcus aureus [22] = assay: Antibacterial activity against methicillin resistant Staphylococcus aureus infected in male BALB/c mouse model of skin wound infection assessed as appearance of intact structure of stratum corneum at 2 mg/kg, ip measured after 10 days post infection; format: functional, organism-based; details: time 10.0 day
Acinetobacter baumannii [23] = assay: Antibacterial activity against Acinetobacter baumannii 5444 assessed as reduction in bacterial growth incubated for 18 to 24 hrs by broth microdilution method; format: functional; details: time 18-24 hrs
Enterococcus faecalis = assay: Antibacterial activity against Enterococcus faecalis ATCC 29212 assessed as reduction in bacterial growth incubated for 18 to 24 hrs by broth microdilution method; format: functional; details: time 18-24 hrs
[24] = Stability in mouse serum assessed as half life measured after 1 hr by HPLC analysis; format: ADME, cell-free
Klebsiella pneumoniae [25] = assay: Antibacterial activity against Klebsiella pneumoniae ATCC 700603 infected in male BALB/c mouse lung infection model assessed as expansion of lung alveoli at 5 mg/kg, ip measured after 6 to 36 hrs; format: functional, organism-based; details: time 6-36 hrs
Staphylococcus aureus [26] = assay: Antibacterial activity against methicillin resistant Staphylococcus aureus infected in male BALB/c mouse model of skin wound infection assessed as healthy development of sebaceous glands at 2 mg/kg, ip measured after 10 days post infection; format: functional, organism-based; details: time 10.0 day
Staphylococcus aureus [27] = assay: Induction of morphological changes in Staphylococcus aureus assessed as cell aggregation adhesion at 2 times MIC measured after 120 mins by SEM analysis; format: functional, organism-based
Acinetobacter baumannii [28] = assay: Antibacterial activity against Acinetobacter baumannii 92359 assessed as reduction in bacterial growth incubated for 18 to 24 hrs by broth microdilution method; format: functional; details: time 18-24 hrs
Klebsiella pneumoniae [29] = assay: Antibacterial activity against Klebsiella pneumoniae ATCC 700603 infected in male BALB/c mouse lung infection model assessed as reduction in number of inflammatory cells at 5 mg/kg, ip measured after 6 to 36 hrs; format: functional, organism-based; details: time 6-36 hrs
Staphylococcus aureus [30] = assay: Synergistic antibacterial activity against Staphylococcus aureus 113 measured after 18 hrs in presence of streptomycin by absorbance based analysis; format: functional, organism-based
Staphylococcus aureus [31] = assay: Antibacterial activity against methicillin-resistant Staphylococcus aureus ATCC 33591 assessed as reduction in bacterial growth incubated for 18 to 24 hrs by broth microdilution method; format: functional; details: time 18-24 hrs
Bacillus subtilis = assay: Antibacterial activity against Bacillus subtilis ATCC 23857 assessed as reduction in bacterial growth incubated for 18 to 24 hrs by broth microdilution method; format: functional; details: time 18-24 hrs
Staphylococcus aureus [32] = assay: Bactericidal activity against Staphylococcus aureus assessed as bacterial mortality rate at 2 times MIC preincubated with LTA for 1 hr followed by bacteria addition for 24 hrs by spectrophotometric analysis relative to control; format: functional
Escherichia coli [33] = assay: Antibacterial activity against Escherichia coli assessed as reduction in survival bacterial growth in presence of KCl measured after 18 to 24 hrs (reference value: 8 microM); format: functional; details: time 18-24 hrs
Escherichia coli [34] = assay: Antibacterial activity against Escherichia coli 780 assessed as reduction in bacterial growth incubated for 18 to 24 hrs by broth microdilution method; format: functional; details: time 18-24 hrs
Klebsiella pneumoniae [35] = assay: Induction of morphological changes in Klebsiella pneumoniae assessed as cell adhesion at 2 times MIC measured after 30 mins by SEM analysis; format: functional, organism-based

With CCCCCCCC(=O)NCCCC[C@H](NC(=O)CCCCCCC)C(=O)N[C@@H](CCCCN)C(=O)N[C@@H](CCCCN)C(=O)N[C@@H](Cc1c[nH]c2ccccc12)C(=O)N[C@@H](Cc1c[nH]c2ccccc12)C(N)=O (Octanoyl-K(Octanoyl)KKWW-NH2) the Activity (Klebsiella pneumoniae [1]) was “Active; Compound Showed More Pronounced Effect Compared To 30 Mins Incubation Time”, the Activity (Klebsiella pneumoniae [2]) was “Active; Compound Showed More Pronounced Effect Compared To 30 Mins Incubation Time” and the Activity (Staphylococcus aureus [3]) was “Active”. The MIC (Escherichia coli [4]) was 4 µM, the Activity (Cell membrane [5]) was “Active; Compound Showed Stronger Effect Than Positive Control 0.1% Tritonx-100” and the Activity (Klebsiella pneumoniae [6]) was 1.66 10^4CFU/mg. The Activity (Klebsiella pneumoniae [7]) was “Active; Compound Showed More Pronounced Effect Compared To 30 Mins Incubation Time”, the MIC (Escherichia coli [8]) was 8 µM (≈ 8.21 µg/mL) and the “fold change (FC)” value (Staphylococcus aureus [9]) was 2. The MIC (Acinetobacter baumannii [10]) was 16 µM (≈ 16.4 µg/mL), the Activity (Escherichia coli [11]) was “Active” and the Activity (Cell membrane [12]) was “Dose-dependent-effect”. The Activity (Staphylococcus aureus [13]) was “Active”, the Activity (Staphylococcus aureus [14]) was “Active” and the Activity (Staphylococcus aureus [15]) was “Active”. The Activity (Staphylococcus aureus [16]) was “Active”, the Ratio [17] was 4.78 and the MIC (Staphylococcus aureus [18]) was 8 µM (≈ 8.21 µg/mL). The Activity [19] was “Toxic”, the MIC (Pseudomonas aeruginosa) was 16 µM (≈ 16.4 µg/mL) and the Activity (Lipopolysaccharide (LPS)) was “Active”. For the same compound, the MIC (Escherichia coli [20]) was 8 µM (≈ 8.21 µg/mL), the “fractional inhibitory concentration index (FICI)” value (Staphylococcus aureus [21]) was 0.562 and the Activity (Staphylococcus aureus [22]) was “Active”. For the same compound, the MIC (Acinetobacter baumannii [23]) was 16 µM (≈ 16.4 µg/mL), the MIC (Enterococcus faecalis) was 16 µM (≈ 16.4 µg/mL) and the half-life [24] was 6.3 h. For the same compound, the Activity (Klebsiella pneumoniae [25]) was “Active”, the Activity (Staphylococcus aureus [26]) was “Active” and the Activity (Staphylococcus aureus [27]) was “Active”. The MIC (Acinetobacter baumannii [28]) was 8 µM (≈ 8.21 µg/mL), the Activity (Klebsiella pneumoniae [29]) was “Active” and the Activity (Staphylococcus aureus [30]) was “Active”. The MIC (Staphylococcus aureus [31]) was 8 µM (≈ 8.21 µg/mL), the MIC (Bacillus subtilis) was 8 µM (≈ 8.21 µg/mL) and the Activity (Staphylococcus aureus [32]) was greater than 50%. For the same compound, the MIC (Escherichia coli [33]) was 8 µM, the MIC (Escherichia coli [34]) was 8 µM (≈ 8.21 µg/mL) and the Activity (Klebsiella pneumoniae [35]) was “Active”.

With CCCCCCCCCCCC(=O)N[C@@H](CCCCN)C(=O)N[C@@H](CCCCN)C(=O)N[C@@H](Cc1c[nH]c2ccccc12)C(=O)N[C@@H](Cc1c[nH]c2ccccc12)C(N)=O (Lauroyl-KKWW-NH2) the Activity (Klebsiella pneumoniae [1]) was “Active; Compound Showed More Pronounced Effect Compared To 30 Mins Incubation Time”, the Activity (Klebsiella pneumoniae [2]) was “Active; Compound Showed More Pronounced Effect Compared To 30 Mins Incubation Time” and the Activity (Staphylococcus aureus [3]) was “Active”. The MIC (Escherichia coli [4]) was 8 µM, the Activity (Cell membrane [5]) was “Active; Compound Showed Stronger Effect Than Positive Control 0.1% Tritonx-100” and the Activity (Klebsiella pneumoniae [6]) was 2.4 10^4CFU/mg. For the same compound, the Activity (Klebsiella pneumoniae [7]) was “Active; Compound Showed More Pronounced Effect Compared To 30 Mins Incubation Time”, the MIC (Escherichia coli [8]) was 8 µM (≈ 6.62 µg/mL) and the “fold change (FC)” value (Staphylococcus aureus [9]) was 2. For the same compound, the MIC (Acinetobacter baumannii [10]) was 16 µM (≈ 13.2 µg/mL), the Activity (Escherichia coli [11]) was “Active” and the Activity (Cell membrane [12]) was “Dose-dependent-effect”. For the same compound, the Activity (Staphylococcus aureus [13]) was “Active”, the Activity (Staphylococcus aureus [14]) was “Active” and the Activity (Staphylococcus aureus [15]) was “Active”. The Activity (Staphylococcus aureus [16]) was “Active”, the Ratio [17] was 4.84 and the MIC (Staphylococcus aureus [18]) was 4 µM (≈ 3.31 µg/mL). The Activity [19] was “Toxic”, the MIC (Pseudomonas aeruginosa) was 8 µM (≈ 6.62 µg/mL) and the Activity (Lipopolysaccharide (LPS)) was “Active”. For the same compound, the MIC (Escherichia coli [20]) was 8 µM (≈ 6.62 µg/mL), the “fractional inhibitory concentration index (FICI)” value (Staphylococcus aureus [21]) was 0.562 and the Activity (Staphylococcus aureus [22]) was “Active”. The MIC (Acinetobacter baumannii [23]) was 16 µM (≈ 13.2 µg/mL), the MIC (Enterococcus faecalis) was 8 µM (≈ 6.62 µg/mL) and the half-life [24] was 4.25 h. The Activity (Klebsiella pneumoniae [25]) was “Active”, the Activity (Staphylococcus aureus [26]) was “Active” and the Activity (Staphylococcus aureus [27]) was “Active”. For the same compound, the MIC (Acinetobacter baumannii [28]) was 16 µM (≈ 13.2 µg/mL), the Activity (Klebsiella pneumoniae [29]) was “Active” and the Activity (Staphylococcus aureus [30]) was “Active”. It also gave an MIC (Staphylococcus aureus [31]) of 4 µM (≈ 3.31 µg/mL), an MIC (Bacillus subtilis) of 2 µM (≈ 1.66 µg/mL) and an Activity (Staphylococcus aureus [32]) greater than 50%. The MIC (Escherichia coli [33]) was 4 µM, the MIC (Escherichia coli [34]) was 8 µM (≈ 6.62 µg/mL) and the Activity (Klebsiella pneumoniae [35]) was “Active”.
